Reference: PubChem BioAssay (NCI)
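Five compound concentrations were applied to cells in 96-well plates for 48 hours; endpoints were derived by simple linear interpolation of the resulting dose-response curve. Definition used: TGI = concentration required for complete inhibition of growth.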

Columns and labels:
Assay in all cases: NCI tumour cell line growth inhibition, 48 h
DLD-1 colon = tested on: DLD-1 colon
A549 NSCLC = tested on: A549 NSCLC
P388 leukemia = tested on: P388 leukemia
SN12K1 renal = tested on: SN12K1 renal
HT29 colon = tested on: HT29 colon
OVCAR-3 ovarian = tested on: OVCAR-3 ovarian
UACC-62 melanoma = tested on: UACC-62 melanoma
RXF 393 renal = tested on: RXF 393 renal
SF-539 CNS = tested on: SF-539 CNS
DMS 273 small cell lung = tested on: DMS 273 small cell lung
NCI-H226 lung = tested on: NCI-H226 lung
A498 renal = tested on: A498 renal
SF-295 CNS = tested on: SF-295 CNS
MOLT-4 leukemia = tested on: MOLT-4 leukemia
U251 CNS = tested on: U251 CNS
HOP-62 NSCLC = tested on: HOP-62 NSCLC
KM12 colon = tested on: KM12 colon
UO-31 renal = tested on: UO-31 renal
OVCAR-5 ovarian = tested on: OVCAR-5 ovarian
NCI/ADR-RES ovarian = tested on: NCI/ADR-RES ovarian
OVCAR-8 ovarian = tested on: OVCAR-8 ovarian
CAKI-1 renal = tested on: CAKI-1 renal
SF-268 CNS = tested on: SF-268 CNS
HCT-15 colon = tested on: HCT-15 colon
MALME-3M melanoma = tested on: MALME-3M melanoma
CCRF-CEM leukemia = tested on: CCRF-CEM leukemia
K-562 leukemia = tested on: K-562 leukemia
RPMI-8226 leukemia = tested on: RPMI-8226 leukemia
SK-MEL-2 melanoma = tested on: SK-MEL-2 melanoma
SNB-75 CNS = tested on: SNB-75 CNS
SNB-19 CNS = tested on: SNB-19 CNS
SNB-78 CNS = tested on: SNB-78 CNS
P388/ADR leukemia = tested on: P388/ADR leukemia
MCF7 breast = tested on: MCF7 breast
COLO 205 colon = tested on: COLO 205 colon
HOP-92 NSCLC = tested on: HOP-92 NSCLC
NCI-H23 lung = tested on: NCI-H23 lung
SN12C renal = tested on: SN12C renal
IGROV1 ovarian = tested on: IGROV1 ovarian
SK-MEL-5 melanoma = tested on: SK-MEL-5 melanoma
OVCAR-4 ovarian = tested on: OVCAR-4 ovarian
HCC-2998 colon = tested on: HCC-2998 colon
SK-MEL-28 melanoma = tested on: SK-MEL-28 melanoma
HOP-18 NSCLC = tested on: HOP-18 NSCLC
SK-OV-3 ovarian = tested on: SK-OV-3 ovarian
NCI-H460 lung = tested on: NCI-H460 lung
UACC-257 melanoma = tested on: UACC-257 melanoma
SW-620 colon = tested on: SW-620 colon
NCI-H522 lung = tested on: NCI-H522 lung
EKVX NSCLC = tested on: EKVX NSCLC
M19-MEL melanoma = tested on: M19-MEL melanoma
HCT-116 colon = tested on: HCT-116 colon
KM20L2 colon = tested on: KM20L2 colon
XF 498 CNS = tested on: XF 498 CNS
LOX IMVI melanoma = tested on: LOX IMVI melanoma

## Cc1c2ccncc2c(C)c2c1[nH]c1ccc(OCCN(C)C)cc12
DLD-1 colon
  TGI: 718 nM
A549 NSCLC
  TGI: 844 nM
P388 leukemia
  TGI: 67.5 nM
SN12K1 renal
  TGI: 381 nM
HT29 colon
  TGI: 1240 nM
OVCAR-3 ovarian
  TGI: 1070 nM
UACC-62 melanoma
  TGI: 2350 nM
RXF 393 renal
  TGI: 906 nM
SF-539 CNS
  TGI: 2380 nM
DMS 273 small cell lung
  TGI: 321 nM
NCI-H226 lung
  TGI: 976 nM
A498 renal
  TGI: 2770 nM
SF-295 CNS
  TGI: 505 nM
MOLT-4 leukemia
  TGI: 157 nM
U251 CNS
  TGI: 946 nM
HOP-62 NSCLC
  TGI: 1950 nM
KM12 colon
  TGI: 499 nM
UO-31 renal
  TGI: 1750 nM
OVCAR-5 ovarian
  TGI: 1590 nM
NCI/ADR-RES ovarian
  TGI: 348 nM
OVCAR-8 ovarian
  TGI: 543 nM
CAKI-1 renal
  TGI: 1890 nM
SF-268 CNS
  TGI: 919 nM
HCT-15 colon
  TGI: 706 nM
MALME-3M melanoma
  TGI: 2960 nM
CCRF-CEM leukemia
  TGI: 1300 nM
K-562 leukemia
  TGI: 5210 nM
RPMI-8226 leukemia
  TGI: 135 nM
SK-MEL-2 melanoma
  TGI: 1870 nM
SNB-75 CNS
  TGI: 1310 nM
SNB-19 CNS
  TGI: 958 nM
SNB-78 CNS
  TGI: 3200 nM
P388/ADR leukemia
  TGI: 128 nM
MCF7 breast
  TGI: 785 nM
COLO 205 colon
  TGI: 1300 nM
HOP-92 NSCLC
  TGI: 1620 nM
NCI-H23 lung
  TGI: 1220 nM
SN12C renal
  TGI: 1610 nM
IGROV1 ovarian
  TGI: 1420 nM
SK-MEL-5 melanoma
  TGI: 3400 nM
OVCAR-4 ovarian
  TGI: 368 nM
HCC-2998 colon
  TGI: 656 nM
SK-MEL-28 melanoma
  TGI: 2010 nM
HOP-18 NSCLC
  TGI: 2760 nM
SK-OV-3 ovarian
  TGI: 1840 nM
NCI-H460 lung
  TGI: 92.1 nM
UACC-257 melanoma
  TGI: 2070 nM
SW-620 colon
  TGI: 406 nM
NCI-H522 lung
  TGI: 1160 nM
EKVX NSCLC
  TGI: 1510 nM
M19-MEL melanoma
  TGI: 2170 nM
HCT-116 colon
  TGI: 256 nM
KM20L2 colon
  TGI: 1180 nM
XF 498 CNS
  TGI: 2190 nM
LOX IMVI melanoma
  TGI: 396 nM
